Test results from patent US20050074765A1, “Methods for identifying and using modulators of estrogen related receptor gamma” (priority 2002, published 2005).

How the values were obtained:
ERRγ = target: T1, ERRγ (Homo sapiens, UniProt P62508); test: ERRγ direct binding assay ([3H]-tamoxifen competition, SPA); details: found using FRET assay and direct binding assay in conjunction with the homology model
T1 construct: made in house; host or cells: E. coli BL21(DE3), pRSETa vector
T1 sequence (P62508 with tags, fused parts or gaps): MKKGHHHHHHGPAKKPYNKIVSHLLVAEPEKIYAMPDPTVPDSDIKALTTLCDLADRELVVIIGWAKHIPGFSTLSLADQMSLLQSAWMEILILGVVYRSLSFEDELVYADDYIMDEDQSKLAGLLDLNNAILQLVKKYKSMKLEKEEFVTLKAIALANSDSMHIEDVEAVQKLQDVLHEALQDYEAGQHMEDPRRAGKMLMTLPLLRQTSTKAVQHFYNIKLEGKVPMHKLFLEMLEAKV
Text: The binding assay was developed with a different set of parameters than that of the LiSA assay. No common set of assay conditions is applicable to all nuclear receptors. Accordingly, parameters to be optimized included pH, detergents, carriers, and bead concentrations. By […] several variables at one time, a large number of conditions can be examined through the statistical capabilities of a program called JMP (SAS Institute, Cary N.C.). Multiple variables including, but not limited to, buffer, detergents, and carrier, were entered simultaneously Lnto the program with the goal being to increase specific counts while lowering non-specific counts.
The same ERRγ protein as set forth in Example 4 was used to develop the binding assay. The buffer for this system was prepared with 50 mM MOPS (pH 7), 50 mM KCl, and 1 mM EDTA, in 1 L of deionized water. This buffer was then filtered with the Corning (431205) filter system with a 0.22 μm cellulose Acetate filter. After filtering, 0.01% Tween20 was added. Before using the buffer in the assay, 10 mM DTT was added to the appropriate amount of buffer. Approximately 0.125 mg/ml SA-SPA beads (Wallac) were coated with 20 nM biotinylated ERRγ. […] These plates were then read on the Wallac Trilux scintillation counter.

ERRγ:RIP140 complex = target: T2, ERRγ:RIP140 complex (Homo sapiens, UniProt P62508); test: ERRγ:RIP140 FRET ligand sensing assay (LiSA); type: biochemical; details: ERRγ LBD and RIP140 peptide, one to one ratio
T2 construct: made in house; host or cells: E. coli BL21(DE3), pRSETa vector; RIP140 peptide synthesised by SynPep
T2 sequence (P62508 with tags, fused parts or gaps): T1 sequence (P62508 with tags, fused parts or gaps)
Procedure: Before using the buffer in the assay, 10 mM DTT was added to the appropriate amount of buffer.

## 4-hydroxytamoxifen
ERRγ
  ligand for ERRγ: ligands for ERPγ
ERRγ:RIP140 complex
  dissociation of the receptor:cofactor interaction: caused this dissociation

## CC/C(=C(/c1ccc(OCCN(C)C)cc1)c1cccc(O)c1)c1ccccc1 [3-hydroxytamoxifen]
ERRγ
  ligand for ERRγ: ligands for ERPγ
